The numbers were not newly measured in patent US20150087671A1, “LOW BURST SUSTAINED RELEASE LIPOPHILIC AND BIOLOGIC AGENT COMPOSITIONS” (Micell Technologies, Inc., priority 2012, published 2015), which cites them from elsewhere.

The target in data set [1] is mTOR (Homo sapiens, UniProt P42345).
Data set [2] relates to PI3K/mTOR. Conditions: read-out: IC50, dual PI3K/mTOR inhibitor (target not specified further).
Data set [3] deals with phosphorylation of AKT T308.
Data set [4] has as its system PDGFR.
The test system of data set [5] is NCI-60 cell lines panel.

With `CO[C@H]1C[C@@H]2CC[C@@H](C)[C@@](O)(O2)C(=O)C(=O)N2CCCC[C@H]2C(=O)O[C@H]([C@H](C)C[C@@H]2CC[C@@H](OCCO)[C@H](OC)C2)CC(=O)[C@H](C)/C=C(\C)[C@@H](O)[C@@H](OC)C(=O)[C@H](C)C[C@H](C)/C=C/C=C/C=C/1C` [Everolimus, 40-O-(2-Hydroxyethyl)rapamycin], the IC50 in data set [1] was 0.63 nM. Consider `COc1ccc(-c2ccc3ncc4c(c3c2)n(-c2ccc(N3CCNCC3)c(C(F)(F)F)c2)c(=O)n4C)cn1` [NVP-BGT226], for which, in data set [2], the IC50 is 1 nM. `COc1ccc(-c2cc3c(C)nc(N)nc3n([C@H]3CC[C@H](OCCO)CC3)c2=O)cn1` [PF-04691502]: the IC50 in data set [3] was 7.5 nM. In the case of `Nc1ncnc2c1c(-c1cnc3[nH]ccc3c1)nn2C1CCCC1` [PP121], the IC50 in data set [4] was 2 nM. The GI50 is the concentration at which growth is held to half of that of the control. Take `COc1ccc(COc2cc3oc(=O)c4cc(C(C)O)ccc4c3cc2OC)cc1` (stereo not shown) [Palomid 529]: the GI50 in data set [5] is < 35000 nM. For orientation: bioavailability means the share of a dose that reaches the circulation, judged against a reference dose that is usually intravenous. On to `CO[C@H]1C[C@@H]2CC[C@@H](C)[C@@](O)(O2)C(=O)C(=O)N2CCCC[C@H]2C(=O)O[C@H]([C@H](C)C[C@@H]2CC[C@@H](O)[C@H](OC)C2)CC(=O)[C@H](C)/C=C(\C)[C@@H](O)[C@@H](OC)C(=O)[C@H](C)C[C@H](C)/C=C/C=C/C=C/1C` [Rapamycin, rapamycin], for which the bioavailability (Rapamune oral tablets or solution) is < 14%. Further, the blood concentrations (once daily oral dosing, immunosuppressive dose 2 or 5 mg daily) was 6 to 50 ng/mL.

For `c1cncc(CN2CCC(n3ncc4c(N5CCOCC5)nc(-c5ccc6[nH]ccc6c5)nc43)CC2)c1` [WAY-600], in data set [1], the IC50 is 9 nM. For the molecule `COC(=O)Nc1ccc(-c2nc(N3CCOCC3)c3cnn(C4CCN(C(=O)OC)CC4)c3n2)cc1` [WYE-354], the IC50 in data set [1] is 5 nM.

Regarding `CNC(=O)Nc1ccc(-c2nc(N3CC4CCC(C3)O4)c3cnn(C4CCC5(CC4)OCCO5)c3n2)cc1` [WYE-125132], the IC50 in data set [1] is 0.19 nM.
